Experiment: Pharmacokinetics of 5-MeO-DMT and bufotenine after inhalation
Assay type: in vivo, human
Protocol: Blood samples were obtained at 1; 2; 4; 7; 10; 15; 20; 30; 45 min and 1; 1.5; 2; 3; 4 hours after administration.
PK parameters were generated by algebraic analysis of the concentration versus time plots for each individual. The analysis was carried out using the software Phoenix WinNonlin 6.3.

For `COc1ccc2[nH]cc(CCN(C)C)c2c1` [5-MeO-DMT], the “detectability in the plasma” value (3 hours after inhalation, whole dose range 6, 12, 18 mg) was “no longer detectable”, the “pharmacokinetic measurements with uptitration dosing schemes compared with single doses” value (inhalation, uptitration) was “Substantially similar results were obtained” and the “accumulation upon repeated administration” value (repeated inhalation within a time frame of 1 to 4 hours) was “No accumulation is observed”.

From patent publication US20250241891A1, “TREATMENT OF ANXIETY” (GH RESEARCH IRELAND LIMITED, priority 2022, published 2025)
